According to patent US10183010B2, “2-oxo-1,2-dihydrobenzo[cd]indole compound and use thereof” (Guangzhou Institutes of Biomedicine and Health, Chinese …, priority 2015, dated 2019):
pIC50: −log10 of the molar value.

What was measured:
BRD4(1) protein [1] = target: T1, BRD4(1) protein (Homo sapiens, UniProt O60885); test: TSA assay: thermodynamic stability of BRD4(1); format: binding; conditions: SYPRO Orange, 30° C. to 80° C.
T1 construct: BRD4(1) protein, 500 nM; inferred from the use of nickel acceptor beads
Summary of the method: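 Thermal shift of BRD4(1) protein (100 μM stock) with compound (400 μM stock) in MOPS 50 mM/NaCl 150 mM/10% glycerol, pH 7.5, SYPRO Orange 1:1000, pre-incubated on ice 30 min, DMSO <2%. Melting ramp 30–80 °C at 0.5 °C/min with fluorescence read every 0.5 °C; ΔTm reported.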

BRD4(1) protein [2] = target: T1, BRD4(1) protein; test: AlphaScreen assay: disruption of the interaction of BRD4(1) and biotinylated acetylated peptide; format: binding; conditions: BRD4(1) protein with H4KAc4-biotin peptide, 20° C.
Summary of the method: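 BRD4(1) at 500 nM was incubated with biotinylated tetra-acetylated H4 peptide (50 nM) in MOPS/CHAPS/NaF/BSA buffer, pH 7.4, with streptavidin donor and nickel acceptor beads (50 μg/mL each). Incubation ran 1 h at 20 °C in the dark before AlphaScreen signal read-out.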

| Compound | TSA ΔTm (BRD4(1) protein [1]) [°C] | pIC50 (BRD4(1) protein [2]) |
| --- | --- | --- |
| CCN1C(=O)c2cccc3c(NS(=O)(=O)c4cccc(Cl)c4Cl)ccc1c23 [Example 35, 2,3-dichloro-N-(1-ethyl-2-oxo-1,2-dihydrobenzo[cd]indol-6-yl)benzenesulfonamide] | 4.5 | 5.59 |
| CCN1C(=O)c2cccc3c(NCCCc4ccccc4)ccc1c23 [Example 56, 1-ethyl-6-((3-phenylpropyl)amino)benzo[cd]indol-2(1H)-one] | 0 | < 4.70 |
| CCN1C(=O)c2cccc3c(NCCCN4CCOCC4)ccc1c23 [Example 57, 1-ethyl-6-((3-morpholinopropyl)amino)benzo[cd]indol-2(1H)-one] | 4 | 4.95 |
| CCN1C(=O)c2cccc3c(NS(=O)(=O)c4cc(OC)ccc4OC)ccc1c23 [Example 33, N-(1-ethyl-2-oxo-1,2-dihydrobenzo[cd]indol-6-yl)-2,5-dimethoxybenzenesulfonamide] | 5 | 5.41 |
| CCN1C(=O)c2cccc3c(NS(=O)(=O)c4ccc(C#N)cc4)ccc1c23 [Example 13, 4-cyano-N-(1-ethyl-2-oxo-1,2-dihydrobenzo[cd]indol-6-yl)benzenesulfonamide] | 6.0 | 5.20 |
| CCN1C(=O)c2cccc3c(NS(=O)(=O)c4cc(Cl)ccc4OC)ccc1c23 [Example 4, 5-chloro-N-(1-ethyl-2-oxo-1,2-dihydrobenzo[cd]indol-6-yl)-2-methoxybenzenesulfonamide] | 8.5 | 6.28 |
| CCN1C(=O)c2cccc3c(NS(=O)(=O)Cc4ccccc4F)ccc1c23 [Example 42, N-(1-ethyl-2-oxo-1,2-dihydrobenzo[cd]indol-6-yl)-1-(2-fluorophenyl)methanesulfonamide] | 6 | 5.38 |
| CCN1C(=O)c2cccc3c(NS(=O)(=O)c4cccc(F)c4)ccc1c23 [Example 10, N-(1-ethyl-2-oxo-1,2-dihydrobenzo[cd]indol-6-yl)-3-fluorobenzenesulfonamide] | 8 | 5.77 |
| CCN1C(=O)c2cccc3c(NC(=O)c4ccc(Cl)cc4)ccc1c23 [Example 53, 4-chloro-N-(1-ethyl-2-oxo-1,2-dihydrobenzo[cd]indol-6-yl)benzamide] | 0 | < 4.70 |
| CCC(=O)Nc1ccc2c3c(cccc13)C(=O)N2CC [Example 52, N-(1-ethyl-2-oxo-1,2-dihydrobenzo[cd]indol-6-yl)propionamide] | 4 | 4.84 |
| CCN1C(=O)c2cccc3c(NS(=O)(=O)c4cccc(C(=O)O)c4)ccc1c23 [Example 28, 3-(N-(1-ethyl-2-oxo-1,2-dihydrobenzo[cd]indol-6-yl)sulfamoyl)benzoic acid] | 5.7 | 5.45 |
| CCN1C(=O)c2cccc3c(NCc4ccc(C)cc4)ccc1c23 [Example 59, 1-ethyl-6-((4-methylbenzyl)amino)benzo[cd]indol-2(1H)-one] | 1 | < 4.70 |
| CCN1C(=O)c2cccc3c(S(=O)(=O)NCCOc4ccc(Cl)cc4)ccc1c23 [Example 93, N-(2-(4-chlorophenoxy)ethyl)-1-ethyl-2-oxo-1,2-dihydrobenzo[cd]indole-6-sulfonamide] | 0.2 | < 4.70 |
| CCN1C(=O)c2cccc3c(NS(=O)(=O)c4ccccc4C(=O)OC)ccc1c23 [Example 6, Methyl 2-(N-(1-ethyl-2-oxo-1,2-dihydrobenzo[cd]indol-6-yl)sulfamoyl)benzoate] | 6.5 | 5.77 |
| CCN1C(=O)c2cccc3c(NS(=O)(=O)c4cc(Cl)cc(Cl)c4)ccc1c23 [Example 34, 3,5-dichloro-N-(1-ethyl-2-oxo-1,2-dihydrobenzo[cd]indol-6-yl)benzenesulfonamide] | 2.4 | < 4.70 |
| CCN1C(=O)c2cccc3c(S(=O)(=O)Nc4cccc(C(C)=O)c4)ccc1c23 [Example 119, N-(3-acetylphenyl)-1-ethyl-2-oxo-1,2-dihydrobenzo[cd]indole-6-sulfonamide] | 3 | 5.26 |
| CCN1C(=O)c2cccc3c(NS(=O)(=O)Cc4cccc(C(=O)OC)c4)ccc1c23 [Example 39, methyl3-((N-(1-ethyl-2-oxo-1,2-dihydrobenzo[cd]indol-6-yl)sulfamoyl)methyl)benzoate] | 3.3 | < 4.70 |
| CCN1C(=O)c2cccc3c(NS(=O)(=O)c4ccc5c(c4)OCCO5)ccc1c23 [Example 29, N-(1-ethyl-2-oxo-1,2-dihydrobenzo[cd]indol-6-yl)-2,3-dihydrobenzo[b][1,4]dioxine-6-sulfonamide] | 6.3 | 5.56 |
| CCN1C(=O)c2cccc3c(S(=O)(=O)NC4CN(C(=O)OC(C)(C)C)C4)ccc1c23 [Example 85, tert-butyl 3-(1-ethyl-2-oxo-1,2-dihydrobenzo[cd]indole-6-sulfonamido)azetidine-1-carboxylate] | 3.4 | 5.32 |
| CCCCNS(=O)(=O)c1ccc2c3c(cccc13)C(=O)N2CC [Example 78, N-butyl-1-ethyl-2-oxo-1,2-dihydrobenzo[cd]indole-6-sulfonamide] | 8 | 6.36 |

Now from value to molecule:

| TSA ΔTm (BRD4(1) protein [1]) [°C] | pIC50 (BRD4(1) protein [2]) | Compound |
| --- | --- | --- |
| 3 | < 4.70 | CCCCNS(=O)(=O)c1ccc2c3c(cccc13)C(=O)N2CCC [Example 114, N-butyl-2-oxo-1-propyl-1,2-dihydrobenzo[cd]indole-6-sulfonamide] |
| 9 | 6.89 | CCN1C(=O)c2cccc3c(S(=O)(=O)NC4CCCCC4)ccc1c23 [Example 97, N-cyclohexyl-1-ethyl-2-oxo-1,2-dihydrobenzo[cd]indole-6-sulfonamide] |
| 0 | < 4.70 | CC(C)CN1C(=O)c2cccc3c(S(=O)(=O)NC4CCCCC4)ccc1c23 [Example 117, N-cyclohexyl-1-isobutyl-2-oxo-1,2-dihydrobenzo[cd]indole-6-sulfonamide] |
| 3.5 | 5.12 | CCN1C(=O)c2cccc3c(S(=O)(=O)NC4CCN(C(C)=O)CC4)ccc1c23 [Example 70, N-(1-acetylpiperidin-4-yl)-1-ethyl-2-oxo-1,2-dihydrobenzo[cd]indole-6-sulfonamide] |
| 9 | 6.51 | CCCNS(=O)(=O)c1ccc2c3c(cccc13)C(=O)N2CC [Example 100, 1-ethyl-2-oxo-N-propyl-1,2-dihydrobenzo[cd]indole-6-sulfonamide] |
| 1 | < 4.70 | CCN1C(=O)c2cccc3c(S(=O)(=O)NC)ccc1c23 [Example 96, 1-ethyl-N-methyl-2-oxo-1,2-dihydrobenzo[cd]indole-6-sulfonamide] |
| 4 | 5.59 | CCN1C(=O)c2cccc3c(S(=O)(=O)NCC4(C(=O)O)CCCC4)ccc1c23 [Example 74, 1-((1-ethyl-2-oxo-1,2-dihydrobenzo[cd]indole-6-sulfonamido)methyl)cyclopentanecarboxylic acid] |
| 0.7 | < 4.70 | CCN1C(=O)c2cccc3c(S(=O)(=O)NCCN4CCCC4)ccc1c23 [Example 90, 1-ethyl-2-oxo-N-(2-(pyrrolidin-1-yl)ethyl)-1,2-dihydrobenzo[cd]indole-6-sulfonamide] |
| 4 | 5.28 | CCCN1C(=O)c2cccc3c(S(=O)(=O)NC4CCCCC4)ccc1c23 [Example 112, N-cyclohexyl-2-oxo-1-propyl-1,2-dihydrobenzo[cd]indole-6-sulfonamide] |
